The test system of this assay is Plasmodium falciparum. The experiment in a line: GSK_TCMDC: Inhibition of Plasmodium falciparum 3D7 in whole erythrocytes, using parasite LDH activity as an index of growth. The following applies: Plasmodium falciparum, 3D7. The class given is functional, organism-based.
For the compound `CCCC(C)N(Cc1ccc(C(C)(C)C)cc1)C(=O)c1ccc(OC)cc1` (stereo unspecified), the XC50 amounted to 0.111 µM.
For `CS(=O)(=O)c1cccc(-c2cnc3[nH]cc(-c4cccc(CCN)c4)c3c2)c1` the value was 1.56 µM; for `COc1cccc(-n2ncc3c(N/N=C/c4ccc(CN(C)CCN(C)C)cc4)ncnc32)c1`, 0.893 µM.
Regarding `COc1ccc(S(=O)(=O)NC2CCN(CCNC(=O)Nc3cc(C)nc4ccccc34)C2)cc1` (stereo unspecified), the XC50 was 1.19 µM.
For `CCN(CCCN1CCCCC1)c1cc(C)nc(Nc2ccc(C)c(F)c2)n1` the value was 0.273 µM; for `Cc1cc(Br)cnc1CCCCNC1=NC(=O)CN1C`, 0.366 µM; for `CC(C)(C)c1ccc(Cn2c(=N)n(CC(=O)c3ccc(-c4ccccc4)cc3)c3ccccc32)cc1`, 0.158 µM.
With `O=C(CCCCCNC(=O)c1ccc(O)c(-c2ccc(Cl)c(Cl)c2)c1)NC1CCCCCC1` the figure was 0.947 µM.
With `Cc1ccnc(NC(=O)c2cc(-c3cccc([N+](=O)[O-])c3)nc3onc(C)c23)c1` the figure was 0.888 µM; with `CC(C)c1ccc(C=CC(=O)N2CCC(CCN3CCC(c4c[nH]c5ccccc45)CC3)CC2)cc1`, 1.26 µM.
In turn, `COc1cc(NC(=O)CCCN2CCN(c3cccc(Cl)c3Cl)CC2)ccc1N1CCN(C(C)C)CC1` yielded an XC50 of 0.946 µM.
Compound `CCCCNC[C@@H](O)[C@H](Cc1ccccc1)NC(=O)c1cc2c3c(c1)c(CC)cn3CCS(=O)(=O)N2C` registered an XC50 of 0.196 µM.
Take `O=C(/C=C/C=C/c1ccccc1)NCCCCCN1CCC(c2c[nH]c3ccccc23)CC1`: the XC50 amounted to 1.17 µM.
In turn, `CCc1ccc(CN2CCC(NC(=O)c3ccc(-c4ccccc4F)s3)CC2)cc1` showed an XC50 of 1.49 µM.
`Cc1cccc2nc(-c3ccc(-c4cccc(CNC(C)C)c4)s3)[nH]c12`: the XC50 was 0.231 µM.
In turn, `CCOc1ccc(C(=O)N2CCOC(CCN3CCC(c4ccccc4)CC3)(c3ccc(Cl)c(Cl)c3)C2)cc1` (stereo unspecified) came in with an XC50 of 0.855 µM.
With `Cc1cc(C2CCN(CCCCNC(=O)c3ccc(NC(=O)c4ccc(Cl)cc4)cc3)CC2)c(C)cc1OCc1cccnc1` the figure was 0.603 µM; with `CCCCCCCCCN1CC[C@@H](CCCc2ccnc3ccc(O)cc23)[C@@H](CC)C1`, 0.29 µM; with `O=C(Nc1ccc(-c2nc3ccccc3[nH]2)cc1)c1ccc(S(=O)(=O)N2CCCCC2)cc1`, 0.749 µM.
For the compound `Cc1cccc(CN2CCCN(Cc3ccc(C(=O)Nc4ccc(C)c(F)c4)cc3)CC2)c1`, the XC50 is 1.06 µM.
For `Oc1c(C=Nn2cnnc2)sc2ccccc12` the value was 0.911 µM; for `O=C(c1ccco1)N1CCN(c2nc(-c3ccc(Cl)cc3)nc3ccccc23)CC1`, 0.934 µM.
For the compound `O=C(NCC1CCN(Cc2ccsc2)C1)c1cc(-c2cccc(C(F)(F)F)c2)cs1` (stereo unspecified), the XC50 turned out to be 0.7 µM.
For `CCN(CC)CCCC(C)Nc1ccnc2[nH]c3ccccc3c12` (stereo unspecified) the value was 1.77 µM; for `CCCCCc1cc(O)c2c(c1)OC(C)(C)CC2C1=CCN(Cc2ccccc2)CC1` (stereo unspecified), 0.767 µM; for `Cn1cnnc1Sc1ccc(CN2CCOc3ccc(C4=CCCCC4)cc3C2)o1`, 0.849 µM.
For `CCOc1ccc2ccccc2c1CNCCCCCCNCc1c(OCC)ccc2ccccc12` the value was 0.576 µM.
With `O=C(Nc1nccs1)c1cc(-c2cccnc2)nc2ccc(Br)cc12`, the XC50 turned out to be 0.403 µM.
For `CN1CCC(NCc2ccc(-c3cnc(NCc4ccccc4)nc3)cc2)CC1` the value was 0.827 µM; for `CCCCOC(=O)[C@H](CCC)NC(=O)c1ccc(NS(=O)(=O)c2ccc3nc(N)[nH]c(=O)c3c2)cc1`, 0.198 µM.
With `O=C(c1cc(-c2ccco2)n[nH]1)N1CCN(S(=O)(=O)c2ccc(Br)cc2)CC1` the figure was 0.497 µM.
`Fc1cccc(Nc2nc(NCc3ccc(OCc4ccccc4)cc3)nc(Nc3cccc(F)c3)n2)c1`: the XC50 turned out to be 1.18 µM.
With `Cc1cc(F)ccc1-c1nc(NCC(O)CNCCc2ccccc2)nc2c1ccc(=O)n2-c1c(F)cccc1F` (stereo unspecified) the figure was 0.539 µM; with `OC1CCCN(Cc2ccc(-c3cccc(-c4nc5cc(F)ccc5[nH]4)c3)cc2)C1` (stereo unspecified), 0.868 µM; with `COc1ccc(-c2nc(NCc3ccccc3)c3cc(OC)c(OC)cc3n2)cc1`, 0.398 µM.
The compound `Cc1cc(C(=O)Nc2nc(-c3ccccn3)nc3ccsc23)no1` registered an XC50 of 0.807 µM.
In the case of `COc1cc(C(=O)N2CCOC(CCN3CCC(Cc4ccc(F)cc4)CC3)(c3ccc(Cl)c(Cl)c3)C2)cc(OC)c1OC` (stereo unspecified), the XC50 worked out at 0.902 µM.
Consider `O=C(Nc1ccc(OC2CCN(Cc3ccccc3)C2)c(Cl)c1)c1cccs1` (stereo unspecified), for which the XC50 turned out to be 0.388 µM.
For `O=C(Nc1ccc(C(=O)Nc2cccc(C3=NCCN3)c2)cc1)Nc1ccc(C2=NCCN2)cc1` the value was 0.096 µM; for `CC(=NNC(S)=Nc1ccccc1Cl)c1ccccn1`, 0.0803 µM; for `Cc1ccc(F)c(NC(=O)c2c(-c3c(F)cccc3Cl)noc2C)c1`, 0.934 µM.
The compound `Cc1ccc(C2CC(c3cccs3)=NN2C(=O)c2ccc(Br)o2)cc1` (stereo unspecified) yielded an XC50 of 0.887 µM.
Compound `CCCCCCNC(=N)c1ccc2[nH]c(-c3ccc(O)cc3)nc2c1` gave an XC50 of 0.19 µM.
In the case of `CCCCCc1cc(O)c2c(c1)OC(C)(C)CC2C1=CCN(Cc2cnc3ccccc3c2)CC1` (stereo unspecified), the XC50 worked out at 0.276 µM.
With `CC[C@H](NC(=O)c1ccc(NC(=O)OC(C)(C)C)cc1)C(=O)N[C@@H](CO)C(=O)NCCCCc1ccccc1` the figure was 0.83 µM.
`Cc1cc(Oc2ccc(-n3ccnc3)cc2)nc(N2CCN(CCCN3CCCC3)CC2)n1` showed an XC50 of 0.928 µM.
For `Cc1cc(NC(=O)c2coc3cc(F)c(N4CC(C)N(C)C(C)C4)cc23)ccc1-n1ccnc1` (stereo unspecified) the value was 0.841 µM.
With `CCc1cn(C)c2c(N3CCCC3=O)cc(C(=O)N[C@@H](Cc3ccccc3)[C@H](O)CNC(C)(C)CCCC(C)C)cc12` the figure was 0.487 µM; with `COc1cc(NC2=NS(=O)(=O)c3cc(Cl)ccc3N2C)cc(OC)c1OC`, 0.42 µM; with `COc1cc2nc(NCCc3ccccc3)nc(N(C)Cc3ccccc3)c2cc1OC`, 0.831 µM.
In turn, `CC(Cc1ccc(Oc2ccccc2)cc1)NCC(O)c1cccc(C(F)(F)F)c1` (stereo unspecified) registered an XC50 of 0.674 µM.
With `CN1CCOc2ccc(Nc3nnc(-c4cccc(-c5cccnc5)c4)o3)cc2C1` the figure was 0.104 µM; with `Cc1cc(C)c(NC(=O)N[C@H]2CCN(CCCCCNC(=O)/C=C/c3ccc(Cl)c(Cl)c3)C2)c(C)c1`, 0.95 µM; with `CCCC(=O)Nc1ccc(Nc2nc(C)cc(N3CCCC3)n2)cc1`, 1.49 µM.
With `CCCCCCSc1nnc(COc2cccc3ccccc23)n1-c1ccc(OC)cc1` the figure was 0.0452 µM; with `COc1cc(Cl)c(C)cc1-n1cc(C(=O)c2cc(Br)ccc2O)cc(C#N)c1=O`, 0.874 µM; with `O=c1cc(NCCC(CNCc2cc3ccccc3o2)NCc2cc(Br)cc(Br)c2)[nH]c2ccccc12` (stereo unspecified), 1.21 µM.
With `O=C(NCc1ccc2c(c1)OCO2)c1nn(CCN2CCC(N3CCCC3)CC2)cc1-c1ccc(Cl)c(Cl)c1` the figure was 0.935 µM; with `CCn1ccc2c(N3CCCCS3(=O)=O)cc(C(=O)N[C@@H](Cc3ccccc3)[C@H](O)CNC(C)(C)c3cccc(C(F)(F)F)c3)cc21`, 0.133 µM.
In turn, `O=C(/C=C/c1cccc(Cl)c1)N1CCC(C(O)CN2CCC3(CC2)CN(C(=O)/C=C/c2cccc(Cl)c2)c2ccccc23)CC1` (stereo unspecified) gave an XC50 of 0.892 µM.
For `COc1ccc(CC2(c3ccc(F)cc3)N=C(N)N(CCCc3ccc(F)c(F)c3)C2=O)cc1` (stereo unspecified) the value was 0.779 µM.
With `O=C(Nc1cccc(C(F)(F)F)c1)Nc1cc(F)c(F)cc1Cl` the figure was 1.96 µM; with `O=C(/C=C/c1ccccc1Cl)NC1CCC(CN2CCC(c3c[nH]c4ccncc34)CC2)CC1` (stereo unspecified), 0.334 µM; with `c1ccc(CN2CCN(CCNc3c4ccccc4nc4ccccc34)CC2)cc1`, 0.876 µM.
Regarding `COc1ccccc1C1CCN(C2CCC(NC(=O)/C=C/c3cc(C(F)(F)F)ccc3F)CC2)CC1` (stereo unspecified), the XC50 amounted to 0.868 µM.
For `Fc1ccc(CNc2ncc(-c3ccsc3)c(-c3nccs3)n2)cc1` the value was 0.0721 µM; for `O=C(NC1CC1)c1ccc2cc(C(=O)N3Cc4ccccc4C(c4ccccc4)C3)ccc2c1` (stereo unspecified), 0.91 µM; for `O=c1ccc2ncc(Cl)c3c2n1CC3CN1CCC(NCc2cc3c(cn2)OCCO3)CC1` (stereo unspecified), 0.961 µM.
`CS(=O)(=O)c1ccc(CNCc2cccc(-c3cccc(-c4nc5cc(C(F)(F)F)ccc5[nH]4)c3)c2)cc1` showed an XC50 of 0.182 µM.
With `COc1ccc(C(=O)Nc2ccc(Cl)cc2C(=O)Nc2ccncc2)cc1` the figure was 0.822 µM; with `Cc1ccc(C(C(=O)Nc2ccc(N3CCNCC3)c(Cl)c2)c2ccccc2)cc1` (stereo unspecified), 0.843 µM.
For `COc1cccc(CNC(=O)c2cccc(-c3ccc(CN4CCC(N5CCCC5)CC4)cc3)n2)c1`, the XC50 came out at 1.79 µM.
With `Clc1cccnc1N1CCN(c2ncccc2Cl)CC1` the figure was 0.147 µM; with `CN1CCN(CCCN(Cc2cccc(-c3cccc(CNC4CCCC4)c3)c2)C(=O)CCC2CCCC2)CC1`, 0.675 µM.
Turning to `c1cc(-c2ccc(CN3CCCCC3)cc2)cc(-c2nc3ccccc3[nH]2)c1`, the XC50 turned out to be 0.585 µM.
With `O=c1cc(NCCCNCc2ccccc2-c2ccccc2)[nH]c2ccccc12` the figure was 0.975 µM; with `N#Cc1cc(C(=O)c2cc(Cl)ccc2O)cn(-c2cc(Cl)cc(Cl)c2)c1=O`, 0.849 µM; with `CC(C)n1c(CC2CCN(CC3CCN(C(=O)/C=C/c4ccc(Cl)c(Cl)c4)CC3)CC2)nc2ccccc21`, 0.612 µM.
`CCCCCCNC[C@@H](O)[C@H](Cc1ccccc1)NC(=O)c1cc(NCC)cc(N2CCCCS2(=O)=O)c1` gave an XC50 of 0.995 µM.
With `Cc1nc(-c2ccc3c(c2)CCN(CCC2CCC(NC(=O)c4cc5cccc(Cl)c5[nH]4)CC2)CC3)no1` (stereo unspecified) the figure was 0.633 µM; with `CC(C)C(=O)ONC1=NC(C)(C)N(OCCCOc2cc(Cl)c(Cl)cc2Cl)C(NOC(=O)C(C)C)=N1`, 0.0266 µM.
With `CC(C)c1ccc(CN2CCC(CNC(=O)c3cc(-c4cccc(Cl)c4)cs3)C2)cc1` (stereo unspecified) the figure was 0.752 µM.
Take `Cc1cc(C)c(-c2n[nH]c3c2C(c2cccc(Cl)c2)N(Cc2ccco2)C3=O)c(O)c1` (stereo unspecified): the XC50 was found to be 1.01 µM.
As for `COc1ccc(C(=O)Nc2ccc3oc(-c4ccc(C(F)(F)F)cc4)cc3c2)cc1CCCN(C)C`, the XC50 was determined as 0.698 µM.
`COc1cc(NC(=O)c2sc(-c3ccc(Cl)cc3)cc2NC(=O)N2CCCC2)ccc1OCCN1CCCC1` displayed an XC50 of 0.569 µM.
For `O=C(Nc1ccc(-c2ccccc2)cc1)Nc1cccc(OCCN2CCCC2)c1` the value was 0.935 µM.

(Values after ChEMBL document CHEMBL1157539, “Thousands of chemical starting points for antimalarial lead identification” (Nature, 2010).)
